{
  "source": "patent US12550899B2",
  "about": "“Topramezone derivative and use thereof” (priority 2023, dated 2026)",
  "key": {"Digitaria sanguinalis": {"tested_on": "Digitaria sanguinalis", "assay": "Laboratory rainfastness test (foliar spray, simulated rainfall)", "assay_type": "in vivo", "conditions": "for Average fresh weight / Control efficacy: 20 days post-application", "procedure": "Refer to the “Pesticides guidelines for laboratory bioactivity tests Part 4: Foliar spray application test for herbicide activity, NY/T 1155.4-2006”.\nThe soil used for the test was a mixture of surface 20 cm loam and vermiculite, mixed in a volume ratio of 3:1 to form a culture soil. The test weeds were cultured in a glass greenhouse with a temperature ranging from 25° C. to 35° C. and under natural light.\nA measured quantity of Digitaria sanguinalis seeds were sown in plastic pots with a diameter of 9 cm, and covered with 1-2 mm of soil. The ports were then placed in enamel trays filled with water, and watered by bottom irrigation. After the water seeped to the soil surface, the pots were transferred to the glass greenhouse for standby.\nFive dosages were set for Compound I, Compound II and the control herbicide Topramezone, which were 3.75, 7.5, 15, 30 and 60 grams of active ingredient per hectare respectively. In addition, a blank control was also prepared.\nThe required amount of the herbicide was accurately measured out and directly added with water, which was diluted to the required dosage by using the serial dilution method for standby.\n(§1) The test was conducted on Digitaria sanguinalis at the two-leaf and one-heart stage, with the stems and leaves both sprayed uniformly. The ASS-4 automatic control spraying system with a fan-shaped nozzle was used indoors for herbicide application. Depending on the nozzle pressure and flow rate, 50 mL of herbicide solution was applied to a spraying area of 1.1 m^2 (which was equivalent to the water consumption of 30 L per mu). The system's operating speed was calibrated. The plastic pots to be treated were arranged evenly on the spraying platform to ensure uniform treatment. The spray pressure was set to 0.35 MPa, and the flow rate of the fan-shaped nozzle was set to 800 mL/min. The spraying was carried out in sequence from the low dosage to the high dosage. Each treatment was repeated four times.\nThe rainfastness test was set as follows: at 0.5 hours, 1.0 hour, 3.0 hours, and 6.0 hours after the application of the herbicide, the weeds that have already been sprayed with the herbicide were subjected to stem and leaf showering with a specific shower equipment simulating rainfall. Weeds that were not subjected to the showering treatment served as the control group.\nThe damage symptoms of the weeds (such as growth inhibition, chlorosis, malformation, etc.) were carefully recorded at 3, 7, 10, and 20 days after herbicide application. A visual comparison of the herbicide effectiveness was made after simulated rainfall at different time intervals. At 20 days post-application, the fresh weight of the aboveground parts of the weeds from each treatment group was measured, and the fresh weight control efficacy was calculated.\nThe treatment results were calculated according to the following formula: weed fresh weight control efficacy (%)=(control fresh weight−treatment fresh weight)/control fresh weight×100. A DPS statistical software was used to conduct regression analysis on the logarithmic values of the herbicide dosage and the probit values of the weed fresh weight control efficacy, and the correlation coefficient, GR50, GR90, and the 95% confidence interval were calculated."}, "Corn (White Waxy Corn)": {"tested_on": "Corn (White Waxy Corn)", "assay": "Corn safety laboratory test", "assay_type": "in vivo", "conditions": "in vivo", "procedure": "Three corn varieties: Zhengdan 958, white waxy corn, and sweet corn (Runhua sweet corn).\nThe soil used for the test was a mixture of surface 20 cm loam and vermiculite, mixed in a volume ratio of 3:1 to form a culture soil. The test corn was cultured in a glass greenhouse with a temperature ranging from 25° C. to 35° C. and under natural light.\nA measured quantity of corn seeds were sown in plastic pots with a diameter of 15 cm, and covered with 2-3 cm of soil. The ports were then placed in enamel trays filled with water, and watered by bottom irrigation. After sowing, the pots were transferred to the glass greenhouse for cultivation and growth.\nIn the corn safety test, dosages were set for the two Compounds (Compound I of the present invention and Compound II of the present invention) and the control herbicide Topramezone, which were 15, 30, 60, and 120 grams of active ingredient per hectare respectively. In addition, a blank control was also prepared.\nThe required amount of the herbicide was accurately measured out, an appropriate amount of emulsifier and organic solvent were added to dissolve the herbicide, and then a certain amount of water was added therein until the herbicide was diluted to the required dosage by using the serial dilution method for standby.\nCorn stems and leaves were uniformly sprayed at the 3-4-leaf stage.\nas §1, with “ASS-3” for “test was conducted on Digitaria sanguinalis at the two-leaf and one-heart stage, with the stems and leaves both sprayed uniformly. The ASS-4”, “three” for “four”\nThe herbicide was applied once. After spraying, the pots were air-dried for one day and then placed in the glass greenhouse. Regular watering was conducted to maintain moisture.\nAfter application of the herbicide, whether there were any phytotoxic symptoms in the corn for each treatment was recorded. If yes, the phytotoxicity symptoms and grade were recorded in detail. 15 days after application, the fresh weight of the corn in each treatment was measured and the fresh weight control efficacy was calculated to assess the safety of the herbicide on the corn.\nThe treatment results were calculated according to the following formula: fresh weight control efficacy (%)=(control fresh weight−treatment fresh weight)/control fresh weight×100."}, "[1]": {"conditions": "No spraying (no simulated rainfall), dosage 3.75 g/hectare"}, "[2]": {"conditions": "No spraying (no simulated rainfall), dosage 7.5 g/hectare"}, "[3]": {"conditions": "No spraying (no simulated rainfall), dosage 15 g/hectare"}, "[4]": {"conditions": "No spraying (no simulated rainfall), dosage 30 g/hectare"}, "[5]": {"conditions": "No spraying (no simulated rainfall), dosage 60 g/hectare"}, "[6]": {"conditions": "Spraying water 0.5 hour after herbicide application, dosage 3.75 g/hectare"}, "[7]": {"conditions": "Spraying water 0.5 hour after herbicide application, dosage 7.5 g/hectare"}, "[8]": {"conditions": "Spraying water 0.5 hour after herbicide application, dosage 15 g/hectare"}, "[9]": {"conditions": "Spraying water 0.5 hour after herbicide application, dosage 30 g/hectare"}, "[10]": {"conditions": "Spraying water 0.5 hour after herbicide application, dosage 60 g/hectare"}, "[11]": {"conditions": "Spraying water 1.0 hour after herbicide application, dosage 3.75 g/hectare"}, "[12]": {"conditions": "Spraying water 1.0 hour after herbicide application, dosage 7.5 g/hectare"}, "[13]": {"conditions": "Spraying water 1.0 hour after herbicide application, dosage 15 g/hectare"}, "[14]": {"conditions": "Spraying water 1.0 hour after herbicide application, dosage 30 g/hectare"}, "[15]": {"conditions": "Spraying water 1.0 hour after herbicide application, dosage 60 g/hectare"}, "[16]": {"conditions": "Spraying water 3.0 hour after herbicide application, dosage 3.75 g/hectare"}, "[17]": {"conditions": "Spraying water 3.0 hour after herbicide application, dosage 7.5 g/hectare"}, "[18]": {"conditions": "Spraying water 3.0 hour after herbicide application, dosage 15 g/hectare"}, "[19]": {"conditions": "Spraying water 3.0 hour after herbicide application, dosage 30 g/hectare"}, "[20]": {"conditions": "Spraying water 3.0 hour after herbicide application, dosage 60 g/hectare"}, "[21]": {"conditions": "Spraying water 6.0 hour after herbicide application, dosage 3.75 g/hectare"}, "[22]": {"conditions": "Spraying water 6.0 hour after herbicide application, dosage 7.5 g/hectare"}, "[23]": {"conditions": "Spraying water 6.0 hour after herbicide application, dosage 15 g/hectare"}, "[24]": {"conditions": "Spraying water 6.0 hour after herbicide application, dosage 30 g/hectare"}, "[25]": {"conditions": "Spraying water 6.0 hour after herbicide application, dosage 60 g/hectare"}},
  "note": "“Also recorded” adds a separate entry of the source.",
  "data": [
    {"smiles": "Cc1c(C(=O)c2cnn(C)c2OC(=O)C(C)(C)C)ccc(S(C)(=O)=O)c1C1=NOCC1", "note": "[Compound II, 4-(3-(4,5-dihydroisoxazol-3-yl)-2-methyl-4-(methylsulfonyl)benzoyl)-1-methyl-1H-pyrazol-5-yl pivalate]", "values": [
      {"measurement": "Average fresh weight", "setting": "Digitaria sanguinalis; [1]", "result": 6.0, "unit": "g"},
      {"measurement": "Control efficacy", "setting": "Digitaria sanguinalis; [1]", "result": 8.8, "unit": "%"},
      {"measurement": "Average fresh weight", "setting": "Digitaria sanguinalis; [2]", "result": 4.7, "unit": "g"},
      {"measurement": "Control efficacy", "setting": "Digitaria sanguinalis; [2]", "result": 28.7, "unit": "%"},
      {"measurement": "Average fresh weight", "setting": "Digitaria sanguinalis; [3]", "result": 3.4, "unit": "g"},
      {"measurement": "Control efficacy", "setting": "Digitaria sanguinalis; [3]", "result": 47.9, "unit": "%"},
      {"measurement": "Average fresh weight", "setting": "Digitaria sanguinalis; [4]", "result": 2.3, "unit": "g"},
      {"measurement": "Control efficacy", "setting": "Digitaria sanguinalis; [4]", "result": 64.4, "unit": "%"},
      {"measurement": "Average fresh weight", "setting": "Digitaria sanguinalis; [5]", "result": 1.0, "unit": "g"},
      {"measurement": "Control efficacy", "setting": "Digitaria sanguinalis; [5]", "result": 84.7, "unit": "%"},
      {"measurement": "Average fresh weight", "setting": "Digitaria sanguinalis; [6]", "result": 6.2, "unit": "g"},
      {"measurement": "Control efficacy", "setting": "Digitaria sanguinalis; [6]", "result": 5.7, "unit": "%"},
      {"measurement": "Average fresh weight", "setting": "Digitaria sanguinalis; [7]", "result": 4.6, "unit": "g"},
      {"measurement": "Control efficacy", "setting": "Digitaria sanguinalis; [7]", "result": 29.1, "unit": "%"},
      {"measurement": "Average fresh weight", "setting": "Digitaria sanguinalis; [8]", "result": 3.6, "unit": "g"},
      {"measurement": "Control efficacy", "setting": "Digitaria sanguinalis; [8]", "result": 45.2, "unit": "%"},
      {"measurement": "Average fresh weight", "setting": "Digitaria sanguinalis; [9]", "result": 2.5, "unit": "g"},
      {"measurement": "Control efficacy", "setting": "Digitaria sanguinalis; [9]", "result": 62.1, "unit": "%"},
      {"measurement": "Average fresh weight", "setting": "Digitaria sanguinalis; [10]", "result": 0.6, "unit": "g"},
      {"measurement": "Control efficacy", "setting": "Digitaria sanguinalis; [10]", "result": 90.8, "unit": "%"},
      {"measurement": "Average fresh weight", "setting": "Digitaria sanguinalis; [11]", "result": 5.9, "unit": "g"},
      {"measurement": "Control efficacy", "setting": "Digitaria sanguinalis; [11]", "result": 10.0, "unit": "%"},
      {"measurement": "Average fresh weight", "setting": "Digitaria sanguinalis; [12]", "result": 5.3, "unit": "g"},
      {"measurement": "Control efficacy", "setting": "Digitaria sanguinalis; [12]", "result": 18.8, "unit": "%"},
      {"measurement": "Average fresh weight", "setting": "Digitaria sanguinalis; [13]", "result": 3.3, "unit": "g"},
      {"measurement": "Control efficacy", "setting": "Digitaria sanguinalis; [13]", "result": 49.0, "unit": "%"},
      {"measurement": "Average fresh weight", "setting": "Digitaria sanguinalis; [14]", "result": 2.4, "unit": "g"},
      {"measurement": "Control efficacy", "setting": "Digitaria sanguinalis; [14]", "result": 64.0, "unit": "%"},
      {"measurement": "Average fresh weight", "setting": "Digitaria sanguinalis; [15]", "result": 0.8, "unit": "g"},
      {"measurement": "Control efficacy", "setting": "Digitaria sanguinalis; [15]", "result": 88.5, "unit": "%"},
      {"measurement": "Average fresh weight", "setting": "Digitaria sanguinalis; [16]", "result": 6.0, "unit": "g"},
      {"measurement": "Control efficacy", "setting": "Digitaria sanguinalis; [16]", "result": 8.8, "unit": "%"},
      {"measurement": "Average fresh weight", "setting": "Digitaria sanguinalis; [17]", "result": 5.1, "unit": "g"},
      {"measurement": "Control efficacy", "setting": "Digitaria sanguinalis; [17]", "result": 22.2, "unit": "%"},
      {"measurement": "Average fresh weight", "setting": "Digitaria sanguinalis; [18]", "result": 3.9, "unit": "g"},
      {"measurement": "Control efficacy", "setting": "Digitaria sanguinalis; [18]", "result": 40.6, "unit": "%"},
      {"measurement": "Average fresh weight", "setting": "Digitaria sanguinalis; [19]", "result": 2.0, "unit": "g"},
      {"measurement": "Control efficacy", "setting": "Digitaria sanguinalis; [19]", "result": 70.1, "unit": "%"},
      {"measurement": "Average fresh weight", "setting": "Digitaria sanguinalis; [20]", "result": 1.0, "unit": "g"},
      {"measurement": "Control efficacy", "setting": "Digitaria sanguinalis; [20]", "result": 84.7, "unit": "%"},
      {"measurement": "Average fresh weight", "setting": "Digitaria sanguinalis; [21]", "result": 6.1, "unit": "g"},
      {"measurement": "Control efficacy", "setting": "Digitaria sanguinalis; [21]", "result": 6.5, "unit": "%"},
      {"measurement": "Average fresh weight", "setting": "Digitaria sanguinalis; [22]", "result": 4.7, "unit": "g"},
      {"measurement": "Control efficacy", "setting": "Digitaria sanguinalis; [22]", "result": 27.6, "unit": "%"},
      {"measurement": "Average fresh weight", "setting": "Digitaria sanguinalis; [23]", "result": 3.6, "unit": "g"},
      {"measurement": "Control efficacy", "setting": "Digitaria sanguinalis; [23]", "result": 44.8, "unit": "%"},
      {"measurement": "Average fresh weight", "setting": "Digitaria sanguinalis; [24]", "result": 2.2, "unit": "g"},
      {"measurement": "Control efficacy", "setting": "Digitaria sanguinalis; [24]", "result": 66.7, "unit": "%"},
      {"measurement": "Average fresh weight", "setting": "Digitaria sanguinalis; [25]", "result": 0.8, "unit": "g"},
      {"measurement": "Control efficacy", "setting": "Digitaria sanguinalis; [25]", "result": 87.4, "unit": "%"},
      {"measurement": "Rainfastness compared with Topramezone (in words)", "setting": "Digitaria sanguinalis; in vivo", "result": "significantly better rainfastness"},
      {"measurement": "Effect of rain on control efficacy (in words)", "setting": "Digitaria sanguinalis; rain 0.5 h, 1.0 h and 3.0 h after application", "result": "remained stable"},
      {"measurement": "Effect of rain on control efficacy (in words)", "setting": "Digitaria sanguinalis; rain 0.5 h after application", "result": "little impact; also recorded: almost unaffected"},
      {"measurement": "Corn Growth Status", "setting": "Corn (White Waxy Corn)", "result": "Good, Normal Growth"},
      {"measurement": "Safety to corn (in words)", "setting": "Corn (White Waxy Corn)", "result": "safe"}
    ]}
  ]
}
